This note sets out measurements from PMC6594577, “Identifying small molecule probes of ENTPD5 through high throughput screening” (PLoS ONE, 2019).

Structures are written as SMILES.

In test [1] the target is T1, B.ENTPD5 (human ENTPD5 44–428) (Homo sapiens, UniProt O75356).
T1 construct: bacterial codon-optimized human ENTPD5 44–428 (B.ENTPD5); His8 (C); made in house; host or cells: E. coli C41(DE3)
T1 sequence (O75356 44-428): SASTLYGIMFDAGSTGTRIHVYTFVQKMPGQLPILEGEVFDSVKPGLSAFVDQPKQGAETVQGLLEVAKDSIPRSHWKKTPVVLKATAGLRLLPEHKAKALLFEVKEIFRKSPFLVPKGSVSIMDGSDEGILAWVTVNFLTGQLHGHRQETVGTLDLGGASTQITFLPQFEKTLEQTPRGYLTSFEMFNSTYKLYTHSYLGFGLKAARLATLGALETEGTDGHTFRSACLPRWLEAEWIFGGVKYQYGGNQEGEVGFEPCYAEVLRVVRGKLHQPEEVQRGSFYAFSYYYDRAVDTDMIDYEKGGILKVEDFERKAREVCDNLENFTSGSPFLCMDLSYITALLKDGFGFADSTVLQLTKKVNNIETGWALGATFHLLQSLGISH
Description: coupled enzyme (ENTPD5/UMPK/luciferase) HTS assay. The conditions noted are these: for inhibition at 20 µM: HTS, 20 μM compound, duplicate, read-out: Percent ENTPD5 inhibition; for IC50: compounds at 5, 10, 20 and 40 μM, coupled enzyme HTS assay. It is filed as biochemical. On the procedure:
Stocks of purified B.ENTPD5, UMPK, and luciferase were diluted to 0.4 mg/mL, 1.2 mg/mL, 4.5 mg/mL, respectively, in 250 mM NaCl, 25 mM Tris-HCl pH 8.5, 5 mM MgCl2, 0.1 mg/mL BSA, and 5 mM DTT and flash frozen. To prepare enzyme mix solution for HTS, ENTPD5 (1 ng/μL final concentration) and UMPK (3.5 ng/μL) were diluted in HTS buffer (250 mM NaCl, 25 mM Tris-HCl pH 7.7, 5 mM MgCl2, 5 mM DTT, 0.1 mg/mL BSA, and 0.01% Triton X-100). An ENTPD5 null mix was made as above without ENTPD5 to provide maximal signal mimicking 100% inhibition. Substrate mix solution consisted of ATP (625 μM) and UDP (150 μM) in HTS buffer. Developer solution consisted of Luciferase (50 ng/μL) and D-luciferin (1.6 mM) in HTS buffer. All solutions were stored at 4°C, and equilibrated to room temperature prior to screening. All steps of ENTPD5 HTS were performed at room temperature in duplicate 384-well plates. For each run, 40 μL of enzyme solution (or ENTPD5 null mix) was added to each well of a 384 well plate. 0.1 μL of 10 mM compound (in 100% DMSO) from a 25,000 subset of the Chembridge DiverSet library or DMSO alone were added to wells by pin tool (V&P Scientific). Following a 10-minute incubation, the reaction was initiated with 10 μL of substrate mix (final concentrations: 40 ng/50 μL ENTPD5, 140 ng/50 μL UMPK, 125 μM ATP, 30 μM UDP, 20 μM test compound). Assay plates were shaken at 1500 rpm for 30 seconds and then incubated for 1h. Following incubation, 10 μL of developer solution was added to each well (final concentrations: 500 ng/60 μL luciferase, 266 μM D-luciferin). The plate was shaken for 30 seconds and incubated for 30 minutes. Luminescence readings were performed on a Tecan Infinite […] with automatic attenuation settings and 100 ms integration time. Hits and hit analogs were (re)purchased from Chembridge for SAR studies. Compounds were assayed at 5 μM, 10 μM, 20 μM, and 40 μM using the assay described above. To discover ENTPD5 inhibitors, a coupled enzyme assay was developed for high-throughput screening. The ENTPD5 reaction (UDP ➔ UMP + Pi) was coupled with uridine monophosphate kinase's (UMPK) reaction with UMP (UMP + ATP ➔ UDP + ADP) to create a futile catalytic cycle consuming ATP (Fig 3A). After one hour, the residual ATP was measured with firefly luciferase. UMPK concentrations were chosen to ensure ENTPD5, not UMPK, was rate-limiting. The ATP concentration was chosen to maximize signal with no ENTPD5 present, and the reaction time was optimized to remain in the linear range of the assay. Initial UDP concentration was chosen to allow for multiple turnover events on a single molecule in the cycle. Due to the availability of higher yields of the bacterially produced enzyme, B.ENTPD5 was used for HTS and subsequent structure activity relationship studies. 21,000 compounds were screened in duplicate at 20 μM. The average Z' value of the 132-plate screen was 0.73, indicating a robust assay. Five compounds producing >25% reproducible inhibition of ENTPD5 activity were selected for further analysis (0.02% hit rate) (Fig 3B and 3C).

Another test addresses T2, I.ENTPD5 (Homo sapiens, UniProt O75356).
T2 construct: His8 (C); made in house; host or cells: Hi-5 insect cells (baculovirus amplified in SF9)
T2 sequence (O75356 44-428): T1 sequence (O75356 44-428)
Description: Malachite Green (MG) assay for free phosphate. It is filed as biochemical. The method, then: Malachite Green (MG) assay for free phosphate was used to directly test ENTPD5 activity. Standard curves for each preparation of malachite green were generated using known amounts of free phosphate. Reactions were carried out at room temperature in 1-mL cuvettes and OD 630 nm measurements were performed on a Nanodrop 2000c. ENTPD5 assays were initiated by adding UDP (100 μM final concentration) to a cuvette containing 800 μL of ENTPD5 (10 ng) in reaction buffer (250 mM NaCl, 5 mM MgCl2, 25 mM Tris-HCl pH 8.5). After 5 minutes, the reaction was quenched with 200 μL of MG buffer (13.1% (v/v) Concentrated sulfuric acid, 2.64 mM malachite green, 1.4% (w/v) ammonium molybdate, and 0.17% (v/v) Tween 20) and mixed by pipet. The OD 630 nm was measured after an additional 5-minute incubation. IC50 values were calculated by GraphPad Prism 6 using sigmoidal interpolation model with 95% confidence intervals. Using I.ENTPD5, the five hits compounds were validated in the malachite green (MG) assay, which directly measures free phosphate, a product of ENTPD5 activity.

For test [2], the system named is O-glycan levels in LNCaP cells. Briefly: Western blot for total O-glycosylation, LNCaP. It is filed as cell-based. The conditions noted are these: 10 μM, 24h, immunoblot. On the procedure:
(§1) LNCaP, DU145, PC3, and RWPE-1 cells were treated with 10 μM compound or DMSO control. 24h post-treatment, cells were washed with ice cold PBS, scraped, pelleted and stored at -80°C until use. Frozen cell pellets were lysed with lysis buffer consisting of 20 mM HEPES pH. 7.4, 150 mM NaCl, 1% Triton X-100, 1 mM EGTA, 1 mM EDTA, 10 mM sodium pyrophosphate, 100 mM NaF, 5 mM iodoacetic acid, 20 nM okadaic acid, 0.2 mM phenylmethylsulfonyl flouride (PMSF), and complete protease inhibitor cocktail tablets (Roche Diagnostics). Samples containing 50 μg of protein were suspended in SDS loading buffer, separated on 4–12% SDS polyacrylamide gels (GenScript #M41215) and electrotransferred to PVDF membranes (Millipore Immobilon-FL #IPFL00010). Precision Plus Protein Standards all blue (Bio-Rad 161–0373) were included as molecular weight markers. Immunoblotting was performed using standard methods, with TBS-T and TBS-T with 5% BSA as the wash and blocking/primary antibody dilution solutions, respectively. Total protein was measured with Ponceau-S staining prior to probing with antibodies. Membranes were incubated overnight at 4°C with primary antibodies diluted 1:1000 unless noted otherwise. […] Western blot quantification was normalized to total protein levels and analyzed in ImageStudio (LI-COR).

In the next test the test system is LNCaP cells. Description: Growth inhibition assay, LNCaP. It is filed as cell-based. As to conditions: Homo sapiens, 48 h, 48h treatment, cell count normalized to DMSO. On the procedure:
LNCaP (ATCC CFL-1740), DU-145 (ATCC HTB-81), and PC3 (ATCC CRL-1435) cell lines were cultivated in a humid atmosphere (5% CO2, 37°C) using RPMI 1640 with L-glutamine (10-040-CV Corning) media supplemented with 10% FBS (SH30910.03 Hyclone) and 1x penicillin-streptomycin solution (Invitrogen). RWPE-1 (ATCC CRL-11609) was cultivated in a humid atmosphere (5% CO2, 37°C) using Keratinocyte Serum Free Medium (K-SFM Kit 17005–042 GIBCO) supplemented with bovine pituitary extract, epidermal growth factor (provided with K-SFM Kit), and 1x penicillin-streptomycin solution (Invitrogen). All cell lines were analyzed by STR (Short Tandem Repeat) and confirmed to match to corresponding STR profile data from the Global Bioresource Center ATCC or ExPASy Cellosaurus database. All cell lines were verified to be mycoplasma free.
5,000 cells were plated on day 0 in a 96-well plate. On day 1, before treatment, each well was imaged and direct cell counting was performed using a Celigo S (Nexcelom) imager and automatic cell counting software provided with the instrument. Compounds were added to final concentrations of 0.15 μM- 20 μM. 48 hours after treatment, wells were re-imaged and counted using the pre-treatment counting procedure. Growth was reported as the fold increase over the baseline measurement and normalized to DMSO controls. Experiments were performed in triplicate, in three separate experiments. […]

In test [3] the test system is O-glycan levels in DU145 cells. Description: Western blot for total O-glycosylation, DU145. It is filed as cell-based. The conditions noted are these: DU145, 10 μM, 24h, immunoblot. On the procedure: as §1
Setting [4] is: substrate UDP, purified I.ENTPD5, Michaelis-Menten.

As for `O=S(=O)(Nc1ccc(O)c(-c2c(O)ccc3ccccc23)c1)c1ccc(Cl)cc1` [Compound 2a], in test [1], the inhibition at 20 µM is 35% and the IC50 turned out to be 6.7 ± 0.7 µM. The “inhibition of I.ENTPD5 (hit validation)” value at I.ENTPD5 (MG assay) is recorded as “dose-dependent inhibition”.
The like results for `Cc1cc(C)c(C)c(S(=O)(=O)Nc2ccc(O)c(-c3c(O)ccc4ccccc34)c2)c1C` [Compound 2b] were, in that order, 48%, 3.7 ± 0.4 µM and “dose-dependent inhibition”.
Consider `O=S(=O)(Nc1ccc(O)c(-c2c(O)ccc3ccccc23)c1)c1ccccc1` [Compound 2c], for which, in test [1], half-maximal inhibition (IC50) required 6.8 ± 1 µM.
In turn, `Cc1ccc(S(=O)(=O)Nc2ccc(O)c(-c3c(O)ccc4ccccc34)c2)cc1` [Compound 2d] had an IC50 in test [1] of 7.1 ± 1.6 µM.
As to `CCc1ccc(S(=O)(=O)Nc2ccc(O)c(-c3c(O)ccc4ccccc34)c2)cc1` [Compound 2e], it took 4.3 ± 2.2 µM to reach half-maximal inhibition in test [1] (IC50).
As to `CC(C)(C)c1ccc(S(=O)(=O)Nc2ccc(O)c(-c3c(O)ccc4ccccc34)c2)cc1` [Compound 2f], the O-glycan level result in test [2] and in test [3] was “inability of compound 2f to reduce O-glycan levels” each time. Moreover, the EC50 with LNCaP cells is more than 10 µM. On I.ENTPD5 (MG assay, expanded concentration range, 100 μM UDP), this molecule displayed a half-maximal inhibitory concentration (IC50) of 1.54 µM.
For `O=S(=O)(Nc1ccc(O)c(-c2c(O)ccc3ccccc23)c1)c1ccc(Br)cc1` [Compound 2g], the 50% inhibitory concentration (IC50) in test [1] was determined as 8.3 ± 1 µM.
The molecule `Cc1ccc(S(=O)(=O)Nc2cc(-c3c(O)ccc4ccccc34)c(O)c3ccccc23)cc1` [Compound 2h] yielded an IC50 in test [1] of more than 100 µM.
Same read-out and setting: for `O=S(=O)(Nc1cc(-c2c(O)ccc3ccccc23)c(O)c2ccccc12)c1ccc(Cl)cc1` [Compound 2i] the value was more than 100 µM.
Consider `CCC(=O)N1c2ccccc2C(N(C(=O)c2ccccc2)c2ccccc2)CC1C` (stereo not drawn) [Compound 3], for which, in test [1], the inhibition at 20 µM worked out at 47%.
Regarding `O=C1NC(c2ccccc2OCc2ccccc2)Nc2ccccc21` (stereo not drawn) [Compound 4], the inhibition at 20 µM in test [1] was found to be 28%. The “inhibition of I.ENTPD5 (hit validation)” value against I.ENTPD5 (MG assay) is “dose-dependent inhibition”.
Consider `O=c1ccn([C@@H]2O[C@H](COP(=O)(O)OP(=O)(O)O)[C@@H](O)[C@H]2O)c(=O)[nH]1` [UDP, reference compound], for which, at I.ENTPD5 (setting [4]), the Km stood at 480 ± 111 µM and the kcat stood at 783 ± 68 s⁻¹.
